# Results published in paper PMC10775801 (Drug Design, Development and Therapy, 2024).
# Read-outs that look alike come from different tables or passages of the source.
# What was measured:
# [1] = mice, rats, and dogs; ref a previous article; cited from earlier work
# [2] = healthy volunteers, cited from earlier work
# [3] = format: in vitro ADME, rat; settings: room temperature (25 °C for 24 h), sampler 4 °C for 24 h, three freeze-thaw cycles (−20 °C to 25 °C), −80 °C for 14 days
# [4] = format: in vivo, Sprague-Dawley rats; settings: rat plasma
# [5] = SD rats, oral 15 mg/kg; cited from earlier work
# in vivo = experiment: in vivo; set-up: species or system Sprague-Dawley rats; settings: rat
# [6] = oral 30 mg/kg, 4 h after administration
smiles,measurement,setting,value
C=C(F)C(=O)N1CCN(c2nc(OC[C@@H]3CCCN3C)nc3c2CCN(c2cccc4cccc(Cl)c24)C3)C[C@@H]1CC#N [Adagrasib],tmax,[1],4 to 6 h
same,tmax,[2]; multiple-dose administration,2.96 h
same,tmax,[2]; recommended dose of 600 mg,4.17 h
same,stability in plasma samples and homogenate,[3],stable
same,presence in plasma after intravenous administration,[4]; 10 h after intravenous administration,disappeared completely from the plasma
same,plasma concentration at 24 h,[4]; 24h after single oral administration,very low plasma concentration
same,Cmax,[5],122.3 ng/mL
same,t1/2,[5],10.13 h
same,tmax,[5],6 h
same,concentration at 2 h,"in vivo; male, Sprague-Dawley, in vivo, po, 30 mg/kg",5050 ± 676 ng/g
same,presence in testis,in vivo; oral 30 mg/kg,not found
same,highest concentration in heart,in vivo; [6],70.49 ± 32.73 ng/g
same,highest concentration in kidney,in vivo; [6],1787.02 ± 364.44 ng/g
same,highest concentration in lung,in vivo; [6],3897.76 ± 217.27 ng/g
same,highest concentration in pancreas,in vivo; [6],648.72 ± 305.97 ng/g
same,highest concentration in spleen,"in vivo; oral 30 mg/kg, 8 h after administration",3891.80 ± 699.19 ng/g
same,detectability in the organs (except intestine) at 24 hours,"in vivo; oral 30 mg/kg, 24 hours after administration",still detectable
